Assay results taken from patent US5342843A, “Thienoimidazoppyridone derivatives” (Kyowa Hakko Kogyo Co., Ltd., priority 1991, dated 1994).
pIC50: −log10 of the molar value.

Tests used:
guinea pig trachea = test: Passive Schultz-Dale reaction (relaxation of ovalbumin-induced contraction of passively sensitized trachea); parameters: species or system male Hartley guinea pigs; conditions: Cavia porcellus; concentration causing 50% relaxation; ovalbumin 1 μg/ml, cumulative addition; isolated trachea, 37° C.
Description: Rabbit anti-OA serum prepared in advance by the method of Kohda, et al. [Folia Pharmacol. Japan, Vol. 66, p. 237 (1970)], was intraperitoneally administered to male Hartley guinea pigs weighing 350-500 g for passive sensitization, and 24 hours later tracheas of the animals were removed, and used for the following test. The tracheas were cut into zig-zag strips by the method of Emmerson and Mackay [J. Pharm. Pharmacol., Vol. 31, p.798 (1979)], were suspended in Krebs-Hensleit solution at 37° C. under aeration of a gas mixture of 95% oxygen and 5% carbon dioxide, and equilibrated for about 1 hour. The antigen, ovalbumin, was added to a bath (final concentration; 1 μg/ml). The contraction was recorded using an isotonic transducers (TD-112S; Nihon Koden Kogyo Co.) connected to a recorder (TYPE 3066; Yokogawa Hokushin Electric). Following the contraction curves reached a plateau, a test compound was cumulatively added in order to calculate the concentration causing 50% relaxation (IC50) which was determined from least-squares regression analysis.

[1] = system: plaque-forming cells (PFC); test: Inhibiting effect on plaque-forming cells (PFC); format: cell-based, Balb/c strain male mice; conditions: 120 h; concentration: 10^-5 M; mouse spleen cells, 5 days culture; read-out: PFC inhibition rate (%)
Excerpt: The method devised by Jerne, et al. [Science, Vol. 140, p.405 (1963)] was followed while referring to the method of Yamamoto, et al. [Drugs Exptl. Clin. Res., Vol. 8, p.5 (1982)]. That is, Balb/c strain male mice (7-week-old/SLC) were sensitized with 1×10^8 sheep erythrocytes (manufactured by Bio Test Research Institute), and the spleen was extirpated on the 6th or 7th day. The erythrocytes were removed using ACT solution [Tris (hydroxymethyl) aminomethane-NH4 Cl solution] from the spleen cells, and were washed with RPMI-1640 medium (manufactured by Nissui Seiyaku Co.) three times. Suspensions of the obtained cells (1×10^7) and the sheep erythrocytes (5×10^6) were suspended with RPMI-1640 medium containing the test compound, 2-mercaptoethanol (5×10^-5 M), 10% bovine fetal serum (manufactured by Gibco Co.), streptomycin and penicillin. The obtained cell suspension was distributed into a 24-well microculture plate, and cultured in a carbon dioxide gas incubator at 37° C. for 5 days.
After the completion of culturing, the cells were transferred to a plastic test tube. They are centrifuged at 2000 rpm and the supernatant was removed. Then, the cells were further suspended in 1 ml of RPMI-1640. The cell suspension was charged, together with the sheep erythrocytes and the guinea pig complements, into a Cunningham chamber (manufactured by Takahashi Giken Co.), by the method of Cunningham, et al. [Immunology, Vol. 14, p.599 (1968)]. The cells were incubated at 37° C. for 1-2 hours, and then a direct PFC count was determined.

For `CCCCn1c(=O)c2ncn(Cc3ccccc3)c2c2ccsc21` [Compound 35, 1-benzyl-5-n-butylthieno [2,3-b]-1H-imidazo [4,5-d]pyridine-4 (5H)-one], the pIC50 (guinea pig trachea) was 5.22 and the inhibition at 10 µM [1] was -3.8%.

For `CCn1c(=O)c2[nH]cnc2c2sccc21` [Compound 16, 5-ethylthieno[3,2-b]-3H-imidazo[4,5-d]pyridine-4(5H)one], the pIC50 (guinea pig trachea) was 6.18 and the inhibition at 10 µM [1] was 83.1%.

With `CCCCn1c(=O)c2c(ncn2C)c2ccsc21` [Compound 32, 5-n-butyl-3-methylthieno [2,3-b]-3H-imidazo [4,5-d]pyridine-4 (5H)-one] the pIC50 (guinea pig trachea) was 6.07 and the inhibition at 10 µM [1] was 16.5%.

With `CCn1c(=O)c2ncn(C)c2c2sccc21` [Compound 19, 5-ethyl-1-methylthieno [3,2-b]-1H-imidazo [4,5-d]pyridine-4 (5H)-one] the pIC50 (guinea pig trachea) was 5.00.

With `CCn1c(=O)c2c(ncn2C)c2sccc21` [Compound 17, 5-ethyl-3-methylthieno[3,2-b]-3H-imidazo[4,5-d]pyridine-4 (5H)-one] the pIC50 (guinea pig trachea) was 4.98 and the inhibition at 10 µM [1] was 47%.

Compound `CCn1c(=O)c2ncn(Cc3ccccc3)c2c2sccc21` [Compound 20, 1-benzyl-5-ethylthieno [3,2-b]-1H-imidazo [4,5-d]pyridine-4 (5H)-one] has a pIC50 (guinea pig trachea) of 5.47.

`CC(C)n1c(=O)c2ncn(C)c2c2sccc21` [Compound 9, 5-isopropyl-1-methylthieno[3,2-b]-1H-imidazo[4,5-d]pyridine-4(5H)-one] showed a pIC50 (guinea pig trachea) of 5.14 and an inhibition at 10 µM [1] of 23.8%.

Work on `CCCn1c(=O)c2c(ncn2Cc2ccccc2)c2sccc21` [Compound 13, 3-benzyl-5-n-propylthieno [3,2-b]-3H-imidazo [4,5-d]pyridine-4(5H)-one] yielded an inhibition at 10 µM [1] of 68.3%.

In the case of `CCCn1c(=O)c2c(ncn2C)c2sccc21` [Compound 12, 3-methyl-5-n-propylthieno [3,2-b]-3H-imidazo [4,5-d]pyridine-4(5H)-one], the pIC50 (guinea pig trachea) was 5.53 and the inhibition at 10 µM [1] was 60.4%.

Work on `CCCCn1c(=O)c2[nH]cnc2c2sccc21` [Compound 1, 5-n-butylthieno[3,2-b]-3H-imidazo[4,5-d]pyridine-4(5H)-one] yielded a pIC50 (guinea pig trachea) of 5.33 and an inhibition at 10 µM [1] of 39.3%.

In the case of `CCCCn1c(=O)c2c(ncn2Cc2ccccc2)c2sccc21` [Compound 3, 3-benzyl-5-n-butylthieno [3,2-b]-3H-imidazo [4,5-d]pyridine-4 (5H)-one], the inhibition at 10 µM [1] was 92.4%.

In the case of `CCCn1c(=O)c2[nH]cnc2c2sccc21` [Compound 11, 5-n-propylthieno [3,2-b]-3H-imidazo [4,5-d]pyridine-4(5H)-one], the pIC50 (guinea pig trachea) was 6.04.

In the case of `CCCn1c(=O)c2ncn(C)c2c2sccc21` [Compound 14, 1-methyl-5-n-propylthieno [3,2-b]-1H-imidazo [4,5-d]pyridine-4 (5H)-one], the pIC50 (guinea pig trachea) was 5.18.

In the case of `CCCCn1c(=O)c2[nH]cnc2c2ccsc21` [Compound 31, 5-n-butylthieno [2,3-b]-3H-imidazo [4,5-d]pyridine-4 (5H) one], the pIC50 (guinea pig trachea) was 6.38 and the inhibition at 10 µM [1] was -10.9%.

`CCCCn1c(=O)c2c(ncn2Cc2ccccc2)c2ccsc21` [Compound 33, 3-benzyl-5-n-butylthieno [2,3-b]-3H-imidazo [4,5-d]pyridine-4 (5H)-one] showed a pIC50 (guinea pig trachea) of 4.43 and an inhibition at 10 µM [1] of 94.8%.

With `CC(C)n1c(=O)c2[nH]cnc2c2sccc21` [Compound 6, 5-isopropylthieno [3,2-b]-3H-imidazo [4,5-d]pyridine-4 (5H)-one] the pIC50 (guinea pig trachea) was 5.57 and the inhibition at 10 µM [1] was 8.8%.

Work on `CCCCn1c(=O)c2c(ncn2C)c2sccc21` [Compound 2, 5-n-butyl-3-methylthieno[3,2-b]-3H-imidazo[4,5-d]pyridine-4(5H)-one] yielded a pIC50 (guinea pig trachea) of 4.91 and an inhibition at 10 µM [1] of 43.3%.

`CCCn1c(=O)c2ncn(Cc3ccccc3)c2c2ccsc21` [Compound 39, 1-benzyl-5-n-propylthieno [2,3-b]-1H-imidazo [4,5-d]pyridine-4 (5H)-one] gave a pIC50 (guinea pig trachea) of 5.62.

Compound `CCCCn1c(=O)c2ncn(C)c2c2ccsc21` [Compound 34, 5-n-butyl-1-methylthieno [2,3-b]-1H-imidazo [4,5-d]pyridine-4 (5H)-one] has a pIC50 (guinea pig trachea) of 5.05 and an inhibition at 10 µM [1] of -16.5%.

For `CC(C)n1c(=O)c2c(ncn2C)c2sccc21` [Compound 7, 5-isopropyl-3-methylthieno[3,2-b]-3H-imidazo[4,5-d]pyridine-4(5H)-one], the pIC50 (guinea pig trachea) was 5.45 and the inhibition at 10 µM [1] was 29.5%.
